Results taken from patent US20240261447A1, “COMPOSITIONS AND METHODS FOR TREATING CONDITIONS RELATED TO THE HEPATO[…]” (THE REGENTS OF THE UNIVERSITY OF MICHIGAN, priority 2021, published 2024).

System: Sphincter of Oddi
Details: co-administered with Fe-PSMPs via oral gavage; pancreatic tumor-bearing mice
Protocol: Female C57BL/6 mice 6-8 weeks of age (Jackson Laboratories) were orthotopically inoculated in pancreas with KPC-Luc cells (1.5×10^4). […] During the biodistribution studies, ^68Ga-PSMPs, Fe-PSMPs or Nano-Calcium were administered in mice via oral gavage. Mice were euthanized 2 hours after oral gavage. The pancreas and other major organs were collected and wet-weighted and the radioactivity in the organs were measured by a gamma counter (Wizard 2 1-Detector, PerkinElmer).

Structure (SMILES): O=[N+]([O-])OCC(CO[N+](=O)[O-])O[N+](=O)[O-] [nitroglycerin]
- increase in the accumulation of Fe-PSMPs in the pancreas: 10 fold
